Kd and EC50 data for 10 molecules are collected here from patent US20250108048A1, “STING AGONIST COMPOUNDS AND CONJUGATES” (SUTRO BIOPHARMA, INC., priority 2023, published 2025).

Test [1] has as its target T1, hSTING H232 (Homo sapiens, UniProt Q86WV6). Description: Surface plasmon resonance, hSTING H232. It is filed as binding. To be noted: read-out: hSTING H232 SPR (Kd). (SPR reads the build-up and loss of mass on a sensor chip optically.)
Test [2] concerns the target hSTING AQ (Homo sapiens, UniProt Q86WV6, G230A/H232R/R293Q). Description: Surface plasmon resonance, hSTING AQ. The class given is binding. To be noted: read-out: hSTING AQ SPR (Kd).
The target of test [3] is T2, hSTING-HAQ haplotype (Homo sapiens, UniProt Q86WV6, G230A/H232R/R293Q/R71H).
T2 construct: host or cells: THP-1-Dual
Description: THP-1-Dual reporter assay (endogenous hSTING-HAQ). It is filed as cell-based. To be noted: THP-1-Dual cells (hSTING-HAQ), 24 hours. How it is done:
(§1) The activities of the STING agonists to activate human or mouse STING pathways were evaluated in THP-1-Dual™, THP1-Dual™ KI-hSTING-R232, THP1-Dual™ KI-hSTING-H232 Cells and THP1-Dual™ KI-mSTING Cells. THP-1-Dual™ cells contains hSTING-HAQ haplotype and can be used to evaluate the activity of STING agonists by monitoring the activation of NF-κB pathway and the […] (IFN regulatory factor) pathways. THP1-Dual™ KO-STING cells were generated from THP1-Dual™ cells by stable knockout of the endogenous HAQ STING gene. THP1-Dual™ KI-hSTING-R232 cells, THP1-Dual™ KI-hSTING-H232 cells and THP1-Dual™ KI-mSTING cells were generated by transfecting THP1-Dual™ KO-STING cells with hSTING-R232 or hSTING-H232 or mSTING. Stimulating these reporter cells with a STING agonist activates TRF pathway and induces the production of a secreted Lucia luciferase in the cell culture medium, which can be determined using QUANTI-Luc™ reagent.
(§2) THP-1-Dual™, THP1-Dual™ KI-hSTING-R232, THP1-Dual™ KI-hSTING-H232 and THP1-Dual™ KI-mSTING reporter cells were purchased from Invivogen and maintained in manufacture recommended culture medium with required supplemental antibiotics. On the day of assay, the cells were harvested with Accutase and counted by the Vi-CELL Cell Viability Analyzers. Cells were resuspended in HEK blue detection medium and a total of 10000 cells were seeded in each well of a 384-well flat bottom plate. […] After incubation at 37° C. in a CO2 incubator for 24 hours, 20 μl of cell culture medium per well was transferred into a 384-well white (opaque) plate. 50 μl of QUANTI-Luc™ assay solution was then added to each well and the plate was immediately transferred to an ENVISION® plate reader to measure luminescence (Perkin-Elmer). Relative luminescence readings were converted to fold change of signal using untreated cells as controls. Data was fitted with non-linear regression analysis, using log (agonist) vs. response, variable slope, 4-parameter fit equation using GraphPad Prism. Data was expressed as fold change in signal vs. dose of STING agonist in nM with error bars indicating the Standard Deviation (SD) of the quadruplicates. There result was reported in Table 2 as EC50 (the midpoint of the curve, or concentration at which […] of the maximum effect was observed).
(In general: Reporter assays use an easily measured gene product as a stand-in for the process of interest.)

Test [4] concerns the target T1, hSTING H232. The test can be described thus: THP1-Dual KI-hSTING-H232 reporter assay (IRF pathway, secreted Lucia luciferase). It is filed as cell-based. As to conditions: THP1-Dual KI-hSTING-H232 cells, 24 hours; read-out: Reporter assay EC50 (nM) THP-1-H232. Also on record: host or cells: THP1-Dual KI-hSTING-H232 (from THP1-Dual KO-STING). The protocol: as §1, §2

Test [5] has as its target T3, hSTING-R232 (Homo sapiens, UniProt Q86WV6, H232R).
T3 construct: host or cells: THP1-Dual KI-hSTING-R232 (from THP1-Dual KO-STING)
The test can be described thus: THP1-Dual KI-hSTING-R232 reporter assay (IRF pathway, secreted Lucia luciferase). The class given is cell-based. As to conditions: THP1-Dual KI-hSTING-R232 cells, 24 hours; read-out: Reporter assay EC50 (nM) THP-1-R232. How it is done: as §1, §2

The target in test [6] is hSTING WT (Homo sapiens, UniProt Q86WV6). Description: Surface plasmon resonance, hSTING WT. It is filed as binding. To be noted: read-out: hSTING WT SPR (Kd).
Test [7] concerns the target T4, mSTING (Mus musculus, UniProt Q3TBT3).
T4 sequence (Q3TBT3 1-378): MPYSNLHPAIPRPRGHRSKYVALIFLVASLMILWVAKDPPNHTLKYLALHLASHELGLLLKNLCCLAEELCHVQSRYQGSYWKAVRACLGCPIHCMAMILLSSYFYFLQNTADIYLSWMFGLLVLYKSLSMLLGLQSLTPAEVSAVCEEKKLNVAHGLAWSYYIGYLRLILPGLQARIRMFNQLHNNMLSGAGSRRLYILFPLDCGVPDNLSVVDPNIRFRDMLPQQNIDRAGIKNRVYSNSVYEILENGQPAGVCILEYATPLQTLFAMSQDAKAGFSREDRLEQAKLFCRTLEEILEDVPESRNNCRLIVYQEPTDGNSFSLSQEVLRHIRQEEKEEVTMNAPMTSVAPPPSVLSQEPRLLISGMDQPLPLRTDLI
The test can be described thus: THP1-Dual KI-mSTING reporter assay. It is filed as cell-based. Also on record: host or cells: THP1-Dual KI-mSTING (from THP1-Dual KO-STING). To be noted: THP1-Dual KI-mSTING cells, 24 hours; read-out: Reporter assay EC50 (nM) THP-1 mSTING. How it is done:
as §1
THP-1-Dual™, THP1-Dual™ KI-hSTING-R232, THP1-Dual™ KI-hSTING-H232 and THP1-Dual™ KI-mSTING reporter cells were purchased from Invivogen and maintained in manufacture recommended culture medium with required supplemental antibiotics. On the day of assay, the cells were harvested with Accutase and counted by the Vi-CELL Cell Viability Analyzers. Cells were resuspended in HEK blue detection medium and a total of 10000 cells were seeded in each well of a 384-well flat bottom plate. Serial dilutions of STING agonists free drugs (1:3 serial dilution starting from 5 uM) was added into treatment wells. After incubation at 37° C. in a CO2 incubator for 24 hours, 20 μl of cell culture medium per well was transferred into a 384-well white (opaque) plate. 50 μl of QUANTI-Luc™ assay solution was then added to each well and the plate was immediately transferred to an ENVISION® plate reader to measure luminescence (Perkin-Elmer). Relative luminescence readings were converted to fold change of signal using untreated cells as controls. Data was fitted with non-linear regression analysis, using log (agonist) vs. response, variable slope, 4-parameter fit equation using GraphPad Prism. Data was expressed as fold change in signal vs. dose of STING agonist in nM with error bars indicating the Standard Deviation (SD) of the quadruplicates. There result was reported in Table 2 as EC50 (the midpoint of the curve, or concentration at which […] of the maximum effect was observed).

For orientation: Kd means a measure of binding affinity in units of concentration. For orientation: EC50 means the concentration at which the effect is half-maximal.

T2 sequence (Q86WV6 whole entry R71H/G230A/H232R/R293Q): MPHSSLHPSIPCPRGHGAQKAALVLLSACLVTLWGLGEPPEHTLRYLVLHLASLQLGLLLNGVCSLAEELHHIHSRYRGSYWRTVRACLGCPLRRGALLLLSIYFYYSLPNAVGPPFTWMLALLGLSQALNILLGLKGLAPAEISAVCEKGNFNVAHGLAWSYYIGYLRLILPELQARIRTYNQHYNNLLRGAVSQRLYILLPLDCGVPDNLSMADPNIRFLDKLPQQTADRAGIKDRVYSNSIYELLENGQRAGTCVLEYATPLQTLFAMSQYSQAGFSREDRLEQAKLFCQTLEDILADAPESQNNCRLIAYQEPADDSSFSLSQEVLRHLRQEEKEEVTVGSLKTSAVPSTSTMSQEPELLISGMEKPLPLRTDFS
Sequence of hSTING AQ (Q86WV6 whole entry G230A/H232R/R293Q): as the sequence (Q86WV6 whole entry R71H/G230A/H232R/R293Q) above, with H71R counted along it
Sequence of hSTING WT (Q86WV6 whole entry H232R): as the sequence (Q86WV6 whole entry R71H/G230A/H232R/R293Q) above, with H71R, A230G, Q293R counted along it
T3 sequence (Q86WV6 whole entry H232R): as the sequence (Q86WV6 whole entry R71H/G230A/H232R/R293Q) above, with H71R, A230G, Q293R counted along it
T1 sequence (Q86WV6 whole entry): as the sequence (Q86WV6 whole entry R71H/G230A/H232R/R293Q) above, with H71R, A230G, R232H, Q293R counted along it

As for `CCn1nc(C)cc1C(=O)Nc1nc2cc(C(N)=O)cc(OC)c2n1C/C=C/Cn1c(N2CCn3nc(C)cc3C2=O)nc2cc(C(N)=O)cc(OCCCN3CC4(CNCCO4)C3)c21` [Compound 5, 1-[(E)-4-[5-Carbamoyl-2-(2-methyl-4-oxo-6,7-dihydropyrazolo[1,5-a]pyrazin-5-yl)-7-[3-(5-oxa-2,8-diazaspiro[3.5]nonan-2-yl)propoxy]benzimidazol-1-yl]but-2-enyl]-2-[(2-ethyl-5-methyl-pyrazole-3-carbonyl)amino]-7-methoxy-benzimidazole-5-carboxamide], the Kd in test [1], in test [2] and in test [6] was at least 0.02 µM throughout. For the same molecule, the concentration for a half-maximal effect (EC50) in test [3], in test [4], in test [5] and in test [7] was over 150 nM in each case.
With `CCn1nc(C)cc1C(=O)Nc1nc2cc(C(N)=O)cc(OC)c2n1C/C=C/Cn1c(NC(=O)Cc2cc(C)nn2C)nc2cc(C(N)=O)cc(OCCCN3CC4(CNCCO4)C3)c21` [Compound 8], the Kd in test [1], in test [2] and in test [6] was at least 0.02 µM each time. Moreover, the EC50 in test [3], in test [4], in test [5] and in test [7] was over 150 nM throughout.
On to `CCc1nc(C)oc1C(=O)Nc1nc2cc(C(N)=O)cc(OCCCN3CC4(C3)CN(C(=O)[C@@H](N)CC(C)C)CCO4)c2n1C/C=C/Cn1c(NC(=O)c2cc(C)nn2CC)nc2cc(C(N)=O)cc(OC)c21` [Compound 17], for which the Kd in test [1], in test [2] and in test [6] was at most 0.02 µM each time. Also, the EC50 in test [3], in test [4], in test [5] and in test [7] was at most 50 nM throughout.
For `CCn1nc(C)cc1C(=O)Nc1nc2cc(C(N)=O)cnc2n1C/C=C/Cn1c(NC(=O)c2cc(C)nn2CC)nc2cc(C(N)=O)cc(OCCCN3CCC(c4nnc5n4CCNC5)CC3)c21` [Compound 21], the Kd in test [1], in test [2] and in test [6] was at most 0.02 µM each time. Also, the EC50 in test [3] was over 150 nM; in test [4], 50 to 150 nM; in test [5] it was 50 to 150 nM; in test [7], over 150 nM.
Consider `CCn1nc(C)cc1C(=O)Nc1nc2cc(C(N)=O)cnc2n1CCCCn1c(NC(=O)c2cc(C)nn2CC)nc2cc(C(N)=O)cc(OCCCN3CCC(c4nnc5n4CCNC5)CC3)c21` [Compound 22], for which the Kd in test [1], in test [2] and in test [6] was at most 0.02 µM each time. For the same molecule, the EC50 in test [3], in test [4], in test [5] and in test [7] was over 150 nM in each case.
Regarding `CCc1nc(C)oc1C(=O)Nc1nc2cc(C(N)=O)cc3c2n1C/C=C/Cn1c(NC(=O)c2cc(C)nn2CC)nc2cc(C(N)=O)cc(c21)OCC1(CNC1)CO3` [Compound 26, (3E)-7-[(4-ethyl-2-methyl-oxazole-5-carbonyl)amino]-25-[(2-ethyl-5-methyl-pyrazole-3-carbonyl)amino]spiro[14,18-dioxa-1,6,8,24-tetrazapentacyclo[17.6.1.16,9.023,26.013,27]heptacosa-3,7,9,11,13 (27), 19 (26), 20,22,24-nonaene-16,3′-azetidine]-11,21-dicarboxamide], the EC50 was over 150 nM in test [3], at most 50 nM in test [4], at most 50 nM in test [5] and 50 to 150 nM in test [7].
`COc1cc(C(N)=O)cc2nc(NC(=O)c3oc(C)nc3C)n(C/C=C/Cn3c(NC(=O)c4oc(C)nc4C)nc4cc(C(N)=O)cc(OCCCN5CCC(c6nnc7n6CCNC7)CC5)c43)c12` [Compound 43, (E)-N-(5-carbamoyl-1-(4-(5-carbamoyl-2-(2,4-dimethyloxazole-5-carboxamido)-7-(3-(4-(5,6,7,8-tetrahydro-[1,2,4]triazolo[4,3-a]pyrazin-3-yl)piperidin-1-yl)propoxy)-1H-benzo[d]imidazol-1-yl)but-2-en-1-yl)-7-methoxy-1H-benzo[d]imidazol-2-yl)-2,4-dimethyloxazole-5-carboxamide]: the EC50 in test [3], in test [4], in test [5] and in test [7] was over 150 nM each time.
For `CCc1nc(C)sc1C(=O)Nc1nc2cc(C(N)=O)cc(OC)c2n1C/C=C/Cn1c(NC(=O)c2sc(C)nc2CC)nc2cc(C(N)=O)cc(OCCCN3CCC(c4nnc5n4CCNC5)CC3)c21` [Compound 44], the EC50 in test [3], in test [4], in test [5] and in test [7] was at most 50 nM each time.
Consider `CCn1nc(C)cc1C(=O)Nc1nc2cc(C(N)=O)cc(OC)c2n1C/C=C/Cn1c(NC(=O)c2cn(C)nc2C2CNC2)nc2cc(C(N)=O)cc(OCCCN3CC4(CCCCO4)C3)c21` [Compound 62], for which the EC50 in test [3], in test [4], in test [5] and in test [7] was over 150 nM each time.
As for `CCn1nc(C)cc1C(=O)Nc1nc2cc(C(N)=O)cc(OC)c2n1C/C=C/Cn1c(NC(=O)c2cn(C)nc2CN)nc2cc(C(N)=O)cc(OCCCN3CC4(CCCCO4)C3)c21` [Compound 63, (E)-7-(3-(5-oxa-2-azaspiro[3.5]nonan-2-yl)propoxy)-2-(3-(aminomethyl)-1-methyl-1H-pyrazole-4-carboxamido)-1-(4-(5-carbamoyl-2-(1-ethyl-3-methyl-1H-pyrazole-5-carboxamido)-7-methoxy-1H-benzo[d]imidazol-1-yl)but-2-en-1-yl)-1H-benzo[d]imidazole-5-carboxamide], the EC50 in test [3], in test [4], in test [5] and in test [7] was over 150 nM each time.
